Data on two compounds can be found in patent US6410029B1, “2-methoxyestradiol-induced apoptosis in cancer cells” (Board of Regents, The University of Texas System, priority 1996, dated 2002).

Series [1] has as its system A549 cells (wild-type p53). In words: Growth assay, A549 cell line. Format: cell-based, human.
Series [2] has as its system H460 cells (wild-type p53). In words: Growth assay, H460 cell line. Format: cell-based, human. As for the experimental part: (§1) Non-small cell lung cancer cell lines H460 (wild-type p53), H358 (p53 deleted), and […] (p53 mutant) were obtained from Drs. Adi Gazdar and John Minna. A549 (wild-type p53) was obtained from ATCC (Rockville, Md.). All cell lines were grown in RPMI 1640 media supplemented with 5% heat inactivated fetal bovine serum and maintained at 5% CO2. All the studies were done when the cells were 70% confluent.
(§2) For cell growth measurements, 5×10^4 cells were plated in each well of six well plates. Control and treated cells were trypsinized and counted using a hemocytotometer. Studies were performed in triplicate.
The inventors tested the effect of 2-MeOE2 treatment on the growth characteristics of four different human lung cancer cell lines differing in their p53 status: H3.58 (p53 deleted), H322 (p53 mutated), H460 (wild-type p53), A549 (wild-type p53).
The cells were treated with 5 μM of 2-MeOE2 or 16-epiestriol (another metabolite of estrogen) and growth of the cells was monitored for five days (FIG. 1).

Series [3] concerns H322 cells (p53 mutated). In words: Growth assay, H322 cell line. Format: cell-based, human. The method, then:
as §1, §2
(§3) The inventors tested the effect of 2-MeOE2 treatment on the growth characteristics of four different human lung cancer cell lines differing in their p53 status: H3.58 (p53 deleted), H322 (p53 mutated), H460 (wild-type p53), A549 (wild-type p53). […]

The next series concerns H358 cells (p53 deleted). In words: Growth assay, H358 cell line. It counts as cell-based, human. As for the experimental part:
as §1, §2, §3

In the next series the test system is wild-type p53 protein. The experiment in a line: Western blot analysis of p53 protein, wild-type p53 lung cancer cell lines. It counts as cell-based, human. As for the experimental part: (§4) Control and drug treated cells were washed in cold PBS, lysed in Laemmli's sample buffer, and subjected to western blot analysis as described previously (Mukhopadhyay et al., 1995). Blots were probed with Pab 1801 anti-p53 monoclonal antibody (Oncogene Sciences, Uniondale, N.Y.). The blot was further probed with anti-WAF1 monoclonal antibody (p21).
(§5) Blots were washed in Tris-buffered saline containing 0.1% Tween 20, incubated with horse radish peroxidase conjugated to secondary antibody and specific immunocomplex was detected by enhanced chemiluminescence technique according to the manufacturer's directions (Amersham, Arlington, Ill.). Blots were reprobed with anti-actin monoclonal antibody (Amersham) to show the equal protein loading.
In general terms: Immunoblotting shows a protein as a band on a membrane.

In another series the test system is mutated p53 protein. The experiment in a line: Western blot analysis of p53 protein, H322 cell line. Format: cell-based, human. The method, then: as §4, §5
The test system of series [4] is p53 protein in normal bronchial epithelial cell lines. The experiment in a line: Western blot analysis of p53 protein, normal bronchial epithelial cell lines. It counts as cell-based. As for the experimental part: as §4, §5
Another series deals with p21WAF1/CIP1 protein. In words: Western blot with WAF1 monoclonal antibody (p21). It counts as cell-based, human. The method, then:
as §4, §5

In a further series the test system is p53 DNA binding activity. In words: Electrophoretic mobility shift assay (EMSA), p53 DNA binding. Format: cell-based, human. The note with it: H460 cells, 5 μm for 48 h. The method, then:
Electrophoretic mobility shift assays (EMSA) were performed using nuclear extract prepared from the H460 cell line. Nuclear extracts were prepared from untreated control and 2-MeOE2 treated cells. Cells were washed in ice cold PBS and scraped into 0.5 ml nuclei harvesting buffer (10 mM HEPES, pH 7.9; 10 mM KCl; 0.1 mM ETA, 1 mM dithiothretol (DTT), 0.1% NP-40; 0.5 mM phenyl methyl-sulfonyl fluoride; […]; 0.5 mg/ml benzamidine). After 30 min of incubation on ice, lysates were centrifuged for 1 min at 4° C. The nuclear pellet was resuspended in nuclear harvesting buffer containing 0.4 M NaCl and incubated on ice for 1 h. The nuclear extracts were microfuged at 12,000 rpm for 30 min at 4° C. and supernatant was stored at −70° C.
To perform electrophoretic mobility shift assays (EMSA), 10 μg of nuclear extract was mixed gently with 0.1 mg of poly (dl-dC) and 1 ng of ^32P-end labeled p53 consensus binding oligonucleotide in binding buffer (25 mM HEPES; pH 7.9; 0.5 mMEDTA; 0.5 mMDTT; 1% NP-40; 5% glycerol; 50 mM NaCl) in total reaction volume 20 μl. One microliter of (1 μg) p53 monoclonal antibody DO1 (Santa Cruz Biotechnology Inc., Calif.) was added to the DNA after binding and incubated for another 15 min to show the supershift. DNA-protein complexes were resolved in native 4.5% polyacrylamide gels. […]
(A gel shift assay detects complexes by their altered migration in electrophoresis.)

The test system of a further series is lung cancer cell lines. The experiment in a line: Cell cycle analysis by flow cytometry. It counts as cell-based, human. The note with it: PI labeling, FACScan, 48 h treatment. The method, then:
It has been shown that induction of p21 causes p53-mediated G1 arrest and induces apoptosis. […] The cells were labeled with PI and cell cycle was analyzed by FACScan.
A general note: Flow cytometry measures light scatter and fluorescence of single cells or particles in a stream.

Series [5] concerns H460 cells. The experiment in a line: TUNEL assay (TdT staining). Format: cell-based, human. Particulars: H460 cells grown in chamber slides. The method, then: Terminal deoxynucleotidyl transferase mediated dUTP-biotin nick end labeling (TUNEL) assay was performed as described previously (Fujiwara et al., 1994). […] Cells were incubated in TdT buffer (30 mM Tris Hcl, pH 7.2; 140 mM cacodylate, 1 mM cobalt chloride) and incubated with biotinylated dUTP (Boehringer Mannheim, Indianapolis, Ind.) and 100 U/ml TdT enzyme (Bethesda Research Laboratory) for 1 h at 37° C. The avidin-biotin complex was detected using the Vectastain Elite kit (Vector Laboratory, Burlingame, Calif.), by the diaminobenzidine-H2O2 method.

Series [6] relates to normal bronchial epithelium. In words: Response of normal bronchial epithelium to 2-MeOE2 treatment. It counts as cell-based.
In series [7] the test system is normal human skin fibroblasts. The note with it: even at a 100 μm concentration; cited from earlier work.
The subject of series [8] is endothelial cells. Particulars: read-out: half-maximal inhibitory concentration (IC50); cited from earlier work.
For a further series, the system named is solid tumors. Particulars: cited from earlier work.
Series [9] deals with colchicine binding site of the tubulin filaments. The note with it: MCF-7 cell line; cited from earlier work.
Series [10] has as its system endothelial cells. Particulars: cited from earlier work.
Series [11] has as its system breast cancer cell line MCF-7. Particulars: cited from earlier work.
A further series has as its system p53 mRNA. In words: Northern blot analysis of p53 mRNA. Particulars: H460, 48 h after treatment.
Another series deals with A549 cells. The experiment in a line: Apoptosis by FACS analysis, A549 cells.
Series [12] has as its system H460 cells. In words: Apoptosis by FACS analysis, H460 cells.
Protocol: (§6) Control and treated cells were collected by trypsinization, washed in PBS and fixed in 70% ethanol overnight. The next day cells were rehydrated in PBS for 30 min, centrifuged, and resuspended in PBS. For DNA analysis, propidium iodide (Sigma) was added at 50 μg/ml, and the cells were incubated in the presence of RNase at 15 μg/ml for 30 min at 37° C. Flow cytometric analysis was carried out in a fluorescence-activated cell sorter (Coulter Epics Elite).
(§7) Cells also were stained with biotinylated UTP for TUNEL assay to monitor the DNA fragmentation. H460 cells were grown in chamber slides and treated with the drugs and TdT staining was performed as described in Materials and Methods.
Series [13] relates to H322 cells (p53 mutated). The experiment in a line: Apoptosis by FACS analysis, H322 cells. The note with it: mutated cell line, after 48 h of 5 μm treatment.
Protocol: as §6, §7
Setting [14] is: dose response studies, after 48 h, lung cancer cell lines.

Description for p53 mRNA: Total RNA was isolated from the subconfluent cultures using the guanidinium thiocyanate method (Chomczynsky and Sacchi, 1987). Twenty micrograms of total RNA was electrophoresed in 1.4% agarose/MOPS formaldehyde gel, transferred to nylon membrane and hybridized to a radiolabeled p53 cDNA probe as described previously (Mukhopadyay and Roth, 1993).

Take `COc1cc2c(cc1O)CC[C@@H]1[C@@H]2CC[C@]2(C)[C@@H](O)CC[C@@H]12` [2-MeOE2, 2-methoxyestradiol]: the growth inhibitory effect result is “significant growth inhibitory effect” in [1] (5 μM, growth monitored for five days, A549 (wild-type p53)); “significant growth inhibitory effect” in series [2] (5 μM, growth monitored for five days, H460 (wild-type p53)); “virtually no growth inhibitory effect” in the series with H322 cells (p53 mutated) [3] (5 μM, growth monitored for five days, H322 (p53 mutated)); “virtually no growth inhibitory effect” in the series with H358 cells (p53 deleted) (5 μM, growth monitored for five days, H358 (p53 deleted)). Also, the “cell death during the growth assay” value in series [1] (after 48 h, A549, crystal violet staining) is listed as “significant increase in cell death”; in [2] (after 48 h, H460, crystal violet staining), “significant increase in cell death”; in the series on H322 cells (p53 mutated) [3] (after 48 h, H322, crystal violet staining), “only two dead cells”; with H358 cells (p53 deleted) (after 48 h, H358, crystal violet staining), “only two dead cells”. The “concentration that stimulated p53 to a maximum level” value in the series on wild-type p53 protein (setting [14]) was found to be 5 µM. The “increase of wild-type p53 protein levels” value in the series on wild-type p53 protein (during 48 h of treatment, lung cancer cell lines carrying wild-type p53) is 6- to 8 fold. Moreover, in the series with mutated p53 protein, the “level of the mutated p53 protein” value is reported as “no increase”. For the same compound, the “level of p53 protein” value in series [4] was “no increase”. For the same compound, the “increase in p21 protein expression” value in the series on p21WAF1/CIP1 protein (A549 cell line) and with p21WAF1/CIP1 protein (H460 cell line) was 3-5 fold in each case. For the same compound, the “concentration that stimulated p21 to a maximum level” value with p21WAF1/CIP1 protein (setting [14]) stood at 5 µM. Moreover, the “p53 DNA binding activity in nuclear extract vs untreated control” value in the series on p53 DNA binding activity was “three-fold increase”. In the series on lung cancer cell lines, the “G1 arrest (cell cycle analysis)” value is “no evidence of G1 arrest”. Also, in the series on H460 cells [5], the “DNA fragmentation (TUNEL, TdT staining)” value is “many apoptotic bodies”. Also, the “changes in response to treatment (p53 increase, apoptosis)” value in series [6] is listed as “did not show the observed changes”. Moreover, in series [7], the “effect on normal human skin fibroblasts” value is “no effect”. Further, in the series with endothelial cells [8], the IC50 is 150 nM. In addition, in the series with solid tumors (in vivo studies), the “general cytotoxicity in vivo” value is reported as “not associated with general cytotoxicity”. The “capillary formation in solid tumors” value in the series on solid tumors (oral administration, mice) is “potent inhibition”. Moreover, the “growth of solid tumors” value in the series with solid tumors (oral administration, mice) is recorded as “reduced growth”. For the same compound, the binding to tubulin result in [9] is listed as “bind to the colchicine binding site of the tubulin filaments”. In addition, in the series with endothelial cells [10], the angiogenesis in vitro entry is reported as “inhibits”. Besides, in the series with endothelial cells [10] (in vitro), the endothelial cell migration entry is recorded as “inhibits”. For the same compound, in series [11], the cytotoxic effect entry was “cytotoxic effect”. For the same compound, the “p53 mRNA levels” value in the series with p53 mRNA is given as “no change”. The “peak representing apoptotic cells (PI, FACScan)” value in the series with A549 cells (A549 cell line) and in the series with H460 cells [12] (H460 cell line) was “A peak representing apoptotic cells appeared” in each case. Further, the “apoptosis (DNA strand breaks, UTP-labeled biotin / FITC-avidin)” value with A549 cells (A549 cells) and with H460 cells [12] (H460 cells) was “had undergone apoptosis” in each case. Besides, the apoptotic cell death with A549 cells (A549 cells, after 48 h of 5 μm treatment, FACS analysis) was about 48%; in the series with H322 cells (p53 mutated) [13], “no effect”.

For the compound `C[C@]12CC[C@@H]3c4ccc(O)cc4CC[C@H]3[C@@H]1C[C@H](O)[C@@H]2O` [epistriol, 16-epiestriol, reference compound], in the series with lung cancer cell lines, the “G1 arrest (cell cycle analysis)” value was “no evidence of G1 arrest”. Further, in the series with H460 cells [5], the “DNA fragmentation (TUNEL, TdT staining)” value was “little DNA fragmentation”.
